pIC50: −log10 of the molar value.

As usually defined, the pIC50 is the IC50 on a negative log10 scale, so that one unit is a factor of ten.

Assay [1] deals with T1, WRN helicase (aa N517-P1238) (Homo sapiens, UniProt Q14191).
T1 construct: The core helicase motif of the WRN protein (aa N517-P1238) was produced for this assay; His (N); ZZ (N); 3C protease cleavage site (N); made in house; host or cells: Sf21 insect cells (baculovirus; virus and BIICs made in SF9)
Briefly: WRN ATPase assay (DNA dependent ATP hydrolysis, ADP-Glo). It counts as biochemical. As to conditions: 3 hours pre-incubation, 300 micromolar ATP, FLAP26 DNA; geometric mean of at least 2. The procedure, abridged: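 DNA-dependent ATP hydrolysis detected as ADP by ADP-Glo luminescence, using 300 μM ATP, 0.2 nM FLAP26 substrate and 10 nM WRN aa N517-P1238 (Tris pH 7.5 buffer, 2 mM MgCl2, 50 mM NaCl). IC50s fitted from normalized duplicate half-log dilutions; reported as geometric means of at least 2 replicates.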
For orientation: ADP-Glo turns the ADP formed in a reaction into a luminescent signal.

For a further assay, the system named is SW48 cells. Kind of assay: Proliferation assay SW48 (CellTiterGlo). Conditions: Homo sapiens, SW48, 96 h, SW48 colon carcinoma cells, 96 hours, CellTiterGlo; geometric mean of at least 2; read-out: Proliferation Assay SW48 GI50. It counts as cell-based. The method, boiled down:
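SW48 cells, 2,000/well, treated after overnight seeding with eight 3-fold compound dilutions (0.1% DMSO) for 96 hours at 37° C. Viability read as ATP by CellTiterGlo luminescence, normalised to a day-0 plate and vehicle to give % growth; GI50 is geometric mean of ≥2 independent replicates.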
(Cellular ATP, detected with luciferase, serves as a proxy for viable cell number.)

A further assay relates to DLD1-WRN-KO cells. Briefly: Proliferation assay DLD1-WRN-KO (CellTiterGlo, off-target effects). It counts as cell-based. As to conditions: 96 hours, geometric mean of at least 2. The procedure, abridged: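 DLD1 cells with CRISPR knockout of WRN were exposed overnight-seeded to eight 3-fold compound dilutions (0.1% DMSO) for 96 h at 37 °C. Viability was read as ATP by CellTiterGlo luminescence against a day-0 plate, giving GI50 and residual viability at top concentration.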

T1 sequence (Q14191 517-1238): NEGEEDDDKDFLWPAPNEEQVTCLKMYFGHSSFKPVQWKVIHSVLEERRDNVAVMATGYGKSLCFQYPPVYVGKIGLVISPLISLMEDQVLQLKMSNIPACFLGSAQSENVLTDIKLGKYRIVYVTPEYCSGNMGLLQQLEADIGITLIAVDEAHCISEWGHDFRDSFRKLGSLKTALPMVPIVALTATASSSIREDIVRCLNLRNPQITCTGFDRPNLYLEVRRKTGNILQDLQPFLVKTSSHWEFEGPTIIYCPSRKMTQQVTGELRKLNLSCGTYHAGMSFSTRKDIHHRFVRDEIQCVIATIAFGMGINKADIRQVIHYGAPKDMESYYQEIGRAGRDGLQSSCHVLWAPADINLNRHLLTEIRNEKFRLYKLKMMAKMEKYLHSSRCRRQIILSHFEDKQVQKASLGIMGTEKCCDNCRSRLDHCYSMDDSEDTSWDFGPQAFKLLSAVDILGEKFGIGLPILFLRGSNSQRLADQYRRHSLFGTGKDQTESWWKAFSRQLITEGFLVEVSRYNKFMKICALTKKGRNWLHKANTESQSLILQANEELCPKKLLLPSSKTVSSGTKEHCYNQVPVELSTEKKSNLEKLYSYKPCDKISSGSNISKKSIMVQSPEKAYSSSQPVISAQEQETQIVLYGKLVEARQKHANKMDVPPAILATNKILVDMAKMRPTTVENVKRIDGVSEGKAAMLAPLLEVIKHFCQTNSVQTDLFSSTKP

As for `CC(=O)N1CCN(c2c(C)n(CC(=O)Nc3cc(F)c(C(F)F)cc3C)c3nc(C4=CCOCC4)nn3c2=O)CC1` [Example 94, 2-(6-(4-acetylpiperazin-1-yl)-2-(3,6-dihydro-2H-pyran-4-yl)-5-methyl-7-oxo-[1,2,4]triazolo[1,5-a]pyrimidin-4(7H)-yl)-N-(4-(difluoromethyl)-5-fluoro-2-methylphenyl)acetamide], in assay [1], the negative-log IC50 (pIC50) is 6.15. Besides, the values for the GI50 in the assay with SW48 cells and in the assay on DLD1-WRN-KO cells were 3000 nM and more than 10000 nM, respectively.
As to `CC(=O)N1CCN(c2c(C)n(CC(=O)Nc3ccc(C(F)(F)F)cc3)c3nc(-c4ccc(CN(C)C(=O)OC(C)(C)C)cc4)nn3c2=O)CC1` [Example 95, tert-butyl (4-(6-(4-acetylpiperazin-1-yl)-5-methyl-7-oxo-4-(2-oxo-2-((4-(trifluoromethyl)phenyl)amino)ethyl)-4,7-dihydro-[1,2,4]triazolo[1,5-a]pyrimidin-2-yl)benzyl)(methyl)carbamate], the negative-log IC50 (pIC50) in assay [1] was 6.10. Moreover, the GI50 in the assay on SW48 cells was 2000 nM; in the assay on DLD1-WRN-KO cells, more than 10000 nM.
The matching figures for `CC(=O)N1CCN(c2c(C)n(CC(=O)Nc3c(C)cc(C(F)(F)F)cc3Cl)c3nc(C4=CCOCC4)nn3c2=O)CC1` [Example 96, 2-(6-(4-acetylpiperazin-1-yl)-2-(3,6-dihydro-2H-pyran-4-yl)-5-methyl-7-oxo-[1,2,4]triazolo[1,5-a]pyrimidin-4(7H)-yl)-N-(2-chloro-6-methyl-4-(trifluoromethyl)phenyl)acetamide]: 6.10, 3000 nM and more than 10000 nM.
In the same order, the values of `CC(=O)N1CCN(c2c(C)n(CC(=O)Nc3cc(F)c(Cl)cc3Cl)c3nc(C4=CCOCC4)nn3c2=O)CC1` [Example 97, 2-(6-(4-acetylpiperazin-1-yl)-2-(3,6-dihydro-2H-pyran-4-yl)-5-methyl-7-oxo-[1,2,4]triazolo[1,5-a]pyrimidin-4(7H)-yl)-N-(2,4-dichloro-5-fluorophenyl)acetamide] are 6.00, 4000 nM and more than 10000 nM.
Take `CC(=O)N1CCN(c2c(C)n(CC(=O)Nc3ccc(C(F)(F)F)nc3Cl)c3nc(C4=CCOCC4)nn3c2=O)CC1` [Example 98, 2-(6-(4-acetylpiperazin-1-yl)-2-(3,6-dihydro-2H-pyran-4-yl)-5-methyl-7-oxo-[1,2,4]triazolo[1,5-a]pyrimidin-4(7H)-yl)-N-(2-chloro-6-(trifluoromethyl)pyridin-3-yl)acetamide]: the pIC50 in assay [1] was 6.00. For the same compound, the GI50 in the assay with SW48 cells is 6000 nM; in the assay on DLD1-WRN-KO cells it was more than 10000 nM.
In the same order, the values of `CC(=O)N1CCN(c2c(C)n(CC(=O)Nc3cnc(C(F)(F)F)cc3Cl)c3nc(C4=CCOCC4)nn3c2=O)CC1` [Example 99, 2-(6-(4-acetylpiperazin-1-yl)-2-(3,6-dihydro-2H-pyran-4-yl)-5-methyl-7-oxo-[1,2,4]triazolo[1,5-a]pyrimidin-4(7H)-yl)-N-(4-chloro-6-(trifluoromethyl)pyridin-3-yl)acetamide] are 5.70, 6000 nM and more than 10000 nM.
The matching figures for `CC(=O)N1CCN(c2c(C)n(CC(=O)Nc3cc(Cl)c(C)cc3Cl)c3nc(C4=CCOCC4)nn3c2=O)CC1` [Example 100, 2-(6-(4-acetylpiperazin-1-yl)-2-(3,6-dihydro-2H-pyran-4-yl)-5-methyl-7-oxo-[1,2,4]triazolo[1,5-a]pyrimidin-4(7H)-yl)-N-(2,5-dichloro-4-methylphenyl)acetamide]: 5.70, 4000 nM and more than 10000 nM.
The matching figures for `CC(=O)N1CCN(c2c(C)n(CC(=O)Nc3cc(F)c(C(F)(F)F)nc3Cl)c3nc(C4=CCOCC4)nn3c2=O)CC1` [Example 101, 2-(6-(4-acetylpiperazin-1-yl)-2-(3,6-dihydro-2H-pyran-4-yl)-5-methyl-7-oxo-[1,2,4]triazolo[1,5-a]pyrimidin-4(7H)-yl)-N-(2-chloro-5-fluoro-6-(trifluoromethyl)pyridin-3-yl)acetamide]: 5.70, 10000 nM and more than 10000 nM.
In turn, `CC(=O)N1CCN(c2c(C)n(CC(=O)Nc3ccc(Cl)c(Cl)c3)c3nc(-c4ccc(CN(C)C(=O)OC5CC/C=C/CCC5)cc4)nn3c2=O)CC1` (stereo not drawn) [Example 102, (E)-cyclooct-4-en-1-yl (4-(6-(4-acetylpiperazin-1-yl)-4-(2-((3,4-dichlorophenyl)amino)-2-oxoethyl)-5-methyl-7-oxo-4,7-dihydro-[1,2,4]triazolo[1,5-a]pyrimidin-2-yl)benzyl)(methyl)carbamate] showed a pIC50 in assay [1] of less than 5.52. In addition, the GI50 in the assay with SW48 cells is 7000 nM; with DLD1-WRN-KO cells, 5000 nM.
The compound `CC(=O)N1CCN(c2c(C)n(CC(=O)Nc3cc(F)c(C(F)(F)F)c(F)c3)c3nc(C4=CCOCC4)nn3c2=O)CC1` [Example 103, 2-(6-(4-acetylpiperazin-1-yl)-2-(3,6-dihydro-2H-pyran-4-yl)-5-methyl-7-oxo-[1,2,4]triazolo[1,5-a]pyrimidin-4(7H)-yl)-N-(3,5-difluoro-4-(trifluoromethyl)phenyl)acetamide] had a negative logarithm of the IC50 (pIC50) in assay [1] of 5.40. Also, the results for the GI50 in the assay on SW48 cells and in the assay on DLD1-WRN-KO cells were 4000 nM and more than 10000 nM, respectively.
As to `CC(=O)N1CCN(c2c(C)n(CC(=O)Nc3ccc(C(F)(F)F)cc3)c3nc(C4=COCCO4)nn3c2=O)CC1` [Example 104, 2-(6-(4-acetylpiperazin-1-yl)-2-(5,6-dihydro-1,4-dioxin-2-yl)-5-methyl-7-oxo-[1,2,4]triazolo[1,5-a]pyrimidin-4(7H)-yl)-N-(4-(trifluoromethyl)phenyl)acetamide], the pIC50 in assay [1] is 6.10. The GI50 is 8000 nM with SW48 cells and more than 10000 nM with DLD1-WRN-KO cells.
Compound `CC(=O)N1CCN(c2c(C)n(CC(=O)Nc3ccc(C(F)(F)F)cc3)c3nc(C4=CCN(C(=O)OC(C)(C)C)CC4)nn3c2=O)CC1` [Example 105, tert-butyl 4-(6-(4-acetylpiperazin-1-yl)-5-methyl-7-oxo-4-(2-oxo-2-((4-(trifluoromethyl)phenyl)amino)ethyl)-4,7-dihydro-[1,2,4]triazolo[1,5-a]pyrimidin-2-yl)-3,6-dihydropyridine-1(2H)-carboxylate] had a pIC50 in assay [1] of 7.00. The figures for the GI50 in the assay on SW48 cells and in the assay on DLD1-WRN-KO cells were 800 nM and 5000 nM, respectively.
For `CC(=O)N1CCN(c2c(C)n(CC(=O)Nc3ccc(C(F)(F)F)cc3)c3nc(-c4cccnc4)nn3c2=O)CC1` [Example 106, 2-(6-(4-acetylpiperazin-1-yl)-5-methyl-7-oxo-2-(pyridin-3-yl)-[1,2,4]triazolo[1,5-a]pyrimidin-4(7H)-yl)-N-(4-(trifluoromethyl)phenyl)acetamide], the pIC50 in assay [1] was 7.00. Further, the GI50 in the assay with SW48 cells was 200 nM; with DLD1-WRN-KO cells it was more than 10000 nM.
In the same order, the values of `COC1CC=C(c2nc3n(CC(=O)Nc4ccc(C(F)(F)F)cc4)c(C)c(N4CCN(C(C)=O)CC4)c(=O)n3n2)CC1` (stereo not drawn) [Example 107, 2-(6-(4-acetylpiperazin-1-yl)-2-(4-methoxycyclohex-1-en-1-yl)-5-methyl-7-oxo-[1,2,4]triazolo[1,5-a]pyrimidin-4(7H)-yl)-N-(4-(trifluoromethyl)phenyl)acetamide] are 6.70, 3000 nM and more than 10000 nM.
The matching figures for `CC(=O)N1CCN(c2c(C)n(CC(=O)Nc3cc(Cl)c(C(F)(F)F)cc3C)c3nc(C4=CCOCC4)nn3c2=O)CC1` [Example 108, 2-(6-(4-acetylpiperazin-1-yl)-2-(3,6-dihydro-2H-pyran-4-yl)-5-methyl-7-oxo-[1,2,4]triazolo[1,5-a]pyrimidin-4(7H)-yl)-N-(5-chloro-2-methyl-4-(trifluoromethyl)phenyl)acetamide]: 6.70, 900 nM and more than 10000 nM.
In the same order, the values of `CC(=O)N1CCN(c2c(C)n(CC(=O)Nc3ccc(C(F)(F)F)cc3)c3nc(C4=CCCCO4)nn3c2=O)CC1` [Example 109, 2-(6-(4-acetylpiperazin-1-yl)-2-(3,4-dihydro-2H-pyran-6-yl)-5-methyl-7-oxo-[1,2,4]triazolo[1,5-a]pyrimidin-4(7H)-yl)-N-(4-(trifluoromethyl)phenyl)acetamide] are 6.70, 4000 nM and more than 10000 nM.
For the compound `CC(=O)N1CCN(c2c(C)n(CC(=O)Nc3ccc(C(F)(F)F)cc3)c3nc(C4=CCCC4)nn3c2=O)CC1` [Example 110, 2-(6-(4-acetylpiperazin-1-yl)-2-(cyclopent-1-en-1-yl)-5-methyl-7-oxo-[1,2,4]triazolo[1,5-a]pyrimidin-4(7H)-yl)-N-(4-(trifluoromethyl)phenyl)acetamide], the pIC50 in assay [1] is 6.70. Further, the GI50 in the assay on SW48 cells was 5000 nM; in the assay with DLD1-WRN-KO cells, more than 10000 nM.

For the origin of these results see US20260250289A1, “BICYCLIC HETEROCYCLES AND THEIR USE AS WRN INHIBITORS” (Novartis AG, priority 2022, published 2026).
